Reference: patent US20240148722A1, “SMALL MOLECULES THAT BIND TO TDP-43 FOR THE TREATMENT OF ALS AND RELATED DISORDERS” (Biohaven Therapeutics Ltd., priority 2021, published 2024)

Target: TDP-43 1-260 (Homo sapiens, UniProt Q13148)
Assay: TDP-43 alpha-screen assay with bt-TAR32
Format: binding
Details: bt-TAR32 0.125 nM; 3 h at room temperature; read-out: Activity (μM) in the TDP-43-DNA alpha-screen assay
Method: Alpha-screen assay. […] Briefly, assays contained TDP-43 1-260 (15 ng/mL, 0.27 nM), 10 mg/mL of both streptavidin donor beads and anti-GST acceptor beads with various concentrations of bt-TAR32 (˜18 to +14 in the HIV1 LTR) and test compound in a final volume of 20 mL of 25 mM Tris, 0.1% CHAPS, pH 7.4 in white, opaque low volume 384-well plates. After 3 h incubation at room temperature, the AlphaScreen signal was measured using a Synergy 2 plate reader (Biotek, Winooski, VT). […] Nonspecific binding was determined in the presence of 10 mM bt-TDP43 and was less than 10% of total binding. IC50 values were obtained from nonlinear regression fits of the data to a one-site binding model using Graph Pad Prism, version 5.0 (GraphPad Software, San Diego, CA). Comparison of competitive inhibition and mixed type inhibition models were evaluated using the F-test on global fits of the data also in Graph Pad Prism, version 5.0.

TDP-43 1-260, sequence (Q13148 1-260): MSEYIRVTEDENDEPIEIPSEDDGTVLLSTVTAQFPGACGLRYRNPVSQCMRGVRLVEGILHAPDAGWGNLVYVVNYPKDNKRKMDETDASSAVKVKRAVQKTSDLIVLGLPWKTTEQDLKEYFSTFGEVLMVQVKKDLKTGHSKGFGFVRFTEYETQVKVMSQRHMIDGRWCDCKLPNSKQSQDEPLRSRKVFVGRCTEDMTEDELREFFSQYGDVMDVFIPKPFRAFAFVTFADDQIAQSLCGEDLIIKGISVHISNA

Structure (SMILES) | IC50 [µM]
COc1ccc(-c2cc(N[C@H]3C[C@H](N)C3)cc(-c3cccc(OCCN4CCCC4)c3)n2)cc1 [Example 88, trans-N1-(2-(3-(2-(pyrrolidin-1-yl)ethoxy)phenyl)-6-(4-methoxyphenyl)pyridin-4-yl)cyclobutane-1,3-diamine] | 0.18
COc1ccc(-c2cc(NC3CCN(C4CCN(C)CC4)CC3)cc(-c3ccc(N4CCNCC4)cc3)n2)cc1 [Example 27, N-(2-(4-methoxyphenyl)-6-(4-(piperazin-1-yl)phenyl)pyridin-4-yl)-1′-methyl-[1,4′-bipiperidin]-4-amine] | 0.11
COc1ccc(-c2cc(NCC3CN(C)CCO3)cc(-c3ccc(N4CCN(C)CC4)cc3)n2)cc1 (centres unmarked) [Example 56] | 3.24
COc1ccc(-c2cc(NC3CCNCC3)cc(-c3ccc(N4CCN(C)CC4)cc3)n2)cc1 [Example 9, 2-(4-methoxyphenyl)-6-(4-(4-methylpiperazin-1-yl)phenyl)-N-(piperidin-4-yl)pyridin-4-amine] | 0.05

Results, then the molecule that gave them:

IC50 [µM] | Structure (SMILES)
0.07 | COc1ccc(-c2cc(NCCCN(C)CCCN)cc(-c3ccc(N4CCN(CC5CNC5)CC4)cc3)n2)cc1 [Example 14]
1.49 | COc1ccc(-c2cc(NCC(F)(F)CN)cc(-c3ccc(N4CCN(C)CC4)cc3)n2)cc1 [Example 63, N-(3-amino-2,2-difluoropropyl)-2-(4-methoxyphenyl)-6-(4-(4-methylpiperazin-1-yl)phenyl)pyridin-4-amine]
7.95 | CN(C)CCCNc1cc(-c2ccc(N3CCNCC3)cc2)nc(-c2ccc(N3CCCC3)nc2)c1 [Example 44]
0.06 | COc1ccc(-c2cc(NCCCN(C)CCCN)cc(-c3ccc(N4CCN(CC5CC5)CC4)cc3)n2)cc1 [Example 10]
0.34 | COc1ccc(-c2cc(NCCCN(C)C)cc(-c3cccc(OCCN(C)C)c3)n2)cc1 [Example 92]
0.08 | COc1ccc(-c2cc(NCCCN(C)CCCN)cc(-c3ccc(CN4CCNCC4)cc3)n2)cc1 [Example 20]
0.21 | COc1ccc(-c2cc(NCCCN(C)C)cc(-c3ccc(OCCCN(C)C)cc3)n2)cc1 [Example 80]
0.08 | COc1ccc(-c2cc(NCCCN(C)CCCN)cc(-c3ccc(N4CCN(C)CC4)cc3)n2)cc1 [Example 23]

Target: T1, TDP-43 (Homo sapiens, UniProt Q13148)
T1 sequence (Q13148 whole entry): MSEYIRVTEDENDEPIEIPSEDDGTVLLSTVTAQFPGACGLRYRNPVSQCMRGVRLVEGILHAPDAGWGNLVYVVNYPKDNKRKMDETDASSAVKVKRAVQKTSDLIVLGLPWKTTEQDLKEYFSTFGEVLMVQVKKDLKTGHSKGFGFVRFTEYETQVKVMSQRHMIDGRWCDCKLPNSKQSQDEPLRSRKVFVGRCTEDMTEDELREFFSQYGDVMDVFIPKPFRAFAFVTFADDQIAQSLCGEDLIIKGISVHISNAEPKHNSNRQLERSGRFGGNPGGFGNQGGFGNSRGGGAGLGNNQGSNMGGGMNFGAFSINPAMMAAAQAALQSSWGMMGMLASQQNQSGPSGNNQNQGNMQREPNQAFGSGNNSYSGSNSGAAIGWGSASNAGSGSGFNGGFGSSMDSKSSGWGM
Assay: not given
Details: using bt-(TG)6 and not bt-TAR32; Biochimie, 2012, 94, 1974-1981; cited from earlier work

Structure (SMILES) | activity in a TDP-43 alpha-screen
COc1ccc(-c2cc(NCCCN(C)C)c3ccccc3n2)cc1 [Compound I] | active

Target: T1, TDP-43
Assay: not given
Details: cited from earlier work

Structure (SMILES) | caspase-7 cleavage of TDP-43
COc1ccc(-c2cc(NCCCN(C)C)c3ccccc3n2)cc1 [Compound I] | promoted
